Assay results: US10739330B2, “Carbopyronone compounds useful as diagnostic adjuvants” (LIFE TECHNOLOGIES CORPORATION, priority 2014, dated 2020)
Read-outs that look alike come from different tables or passages of the source.

Tests used:
[1] = system: lymphocyte layer of cells from whole blood; assay: Cell tracing by dye dilution, flow cytometry (Compound 2 vs CELLTRACE Far Red DDAO); format: cell-based; details: 5 μM, 20 min 37° C.; stimulated 5 days with DYNABEADS Human T-Activator CD3/CD28; 633/635 nm excitation, 660/20 emission filter
Method: The whole blood sample (20 mL) was diluted in 20 mL of PBS and then centrifuged for 30 min after addition of FICOLL-PAQUE Plus (15 mL) (GE Healthcare). The lymphocyte layer of cells was suspended in 25 mL of PBS buffer and centrifuged for 5 min. The cells were counted on the COUNTESS Automated Counter and the concentration was adjusted to 10^6 cells/mL. 10 mL of cells was incubated with either Compound 2 (FIG. 1A) or CELLTRACE Far Red DDAO (FIG. 1B) (Thermo Fisher Scientific) (5 μM) for 20 min in a 37° C. water bath. After incubation the cells were treated with 40 mL of OPTMIZER T Cell Expansion (Thermo Fisher Scientific) for 5 min. The treatment with OPTMIZER T Cell Expansion was repeated one more time after centrifugation. Next, the stained cells were stimulated with 50 μL DYNABEADS Human T-Activator CD3/CD28 (Thermo Fisher Scientific) per 1 mL of cells for 5 days. The stimulated cells were then analyzed using an ATTUNE flow cytometer (Thermo Fisher Scientific) with 633/635 nm excitation and a 660/20 bandpass emission filter.

A549 cells = assay: CYQUANT Direct cytotoxicity assay; details: 10 μM, 30 mins at 37° C.; assayed on days 1, 2 and 3
Method: A549 cells plated in a 96 well plate were labeled with [sequence] […] The LCIS was then aspirated from cells and complete media added for an overnight incubation. The following day (Day 1) cells were assayed for cytotoxicity using the CYQUANT Direct assay (Thermo Fisher Scientific).

PBMCs [2] = assay: Cytotoxicity test in PBMCs, viability dye (SYTOX) and flow cytometry; details: after proliferation for 3 to 5 days
Text: (§1) To test for cytotoxicity, PBMCs were stained with CELLTRACE (Thermo Fisher Scientific) CFSE (positive control) or Compound 2. The cells were split into samples for culturing and one sample was stimulated with anti-hCD3 (clone UCHT1) and supplemented with recombinant hIL2. Dye loading was observed by fluorescent microscopy. After proliferation for 3 to 5 days, the samples were stained with the appropriate viability dye (e.g., SYTOX dye) and analyzed by flow cytometry (see Table 3).

PBMCs [3] = system: PBMCs
Text: as §1

Compound	generations of cells traced [1]	cytotoxicity compared to DMSO alone (A549 cells)	% Live Cells (PBMCs [2]; 2 μM dye)	% Live Cells (PBMCs [2]; 5 μM dye)	% Live Cells (PBMCs [2]; 10 μM dye)	% Live Cells (PBMCs [3])
CN1CCCc2cc3c(cc21)C(C)(C)c1cc2c(cc1=C3c1ccccc1C(=O)[O-])CCC[N+]=2CCCCCC(=O)ON1C(=O)CCC1=O [Compound 2, 2-(1-(6-((2,5-dioxopyrrolidin-1-yl)oxy)-6-oxohexyl)-11-metheyliumyl-13,13-dimethyl-1,2,3,4,8,9,10,13-octahydro-1114-benzo[1,2-g:5,4-g′]diquinolin-6-yl)benzoate]	seven	no cytotoxicity	53%	55%	64%	–
Carboxyfluorescein diacetate succinimidyl ester [CELLTRACE CFSE]	–	–	–	–	–	52%
